Biological target: T1, human NOX4 (Homo sapiens, UniProt Q9NPH5)
T1 construct: expressed in transfected cells; membrane fraction used
T1 sequence (Q9NPH5 1-578): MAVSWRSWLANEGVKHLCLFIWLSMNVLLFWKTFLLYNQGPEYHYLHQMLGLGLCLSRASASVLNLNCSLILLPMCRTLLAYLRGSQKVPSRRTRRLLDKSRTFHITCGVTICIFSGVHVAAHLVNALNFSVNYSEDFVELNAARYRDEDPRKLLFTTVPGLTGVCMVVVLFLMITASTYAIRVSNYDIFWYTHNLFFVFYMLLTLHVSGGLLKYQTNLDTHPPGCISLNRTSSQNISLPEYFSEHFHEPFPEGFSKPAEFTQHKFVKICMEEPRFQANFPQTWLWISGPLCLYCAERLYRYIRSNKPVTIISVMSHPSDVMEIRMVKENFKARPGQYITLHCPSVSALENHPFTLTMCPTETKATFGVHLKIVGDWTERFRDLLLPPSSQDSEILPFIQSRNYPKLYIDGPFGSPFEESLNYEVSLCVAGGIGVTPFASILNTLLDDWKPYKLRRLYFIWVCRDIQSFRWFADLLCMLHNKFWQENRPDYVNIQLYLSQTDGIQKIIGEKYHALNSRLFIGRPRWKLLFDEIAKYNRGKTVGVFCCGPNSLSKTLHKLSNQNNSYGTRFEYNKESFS
T1 sequence (P13498 1-195 partner): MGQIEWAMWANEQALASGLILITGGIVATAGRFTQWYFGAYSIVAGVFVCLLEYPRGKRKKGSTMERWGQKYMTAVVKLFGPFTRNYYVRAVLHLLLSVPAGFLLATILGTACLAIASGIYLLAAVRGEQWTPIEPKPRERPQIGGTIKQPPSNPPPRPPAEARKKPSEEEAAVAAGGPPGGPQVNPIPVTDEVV
Assay: Cell free membrane based in vitro NOX4 assay: H2O2 production by membranes expressing human NOX4, measured with Amplex Red
Type: biochemical
Settings: for inhibition at 1 µM: 1.0 μM compound, read-out: Percentage inhibition at 1.0 μM; for IC50: class symbols; for inhibition at 10 µM: 10.0 μM compound, read-out: Percentage inhibition at 10.0 μM
In short: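 Membranes from HEK cells stably overexpressing human NOX4 were preincubated 20 min with inhibitor in pH 7.4 HEPES buffer containing HRP and Amplex Red, then NADPH was added. H2O2 was followed for 10 min by fluorescence (ex 544/em 590 nm). IC50 from nonlinear regression of % maximal uninhibited response.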

| Compound | inhibition at 1 µM | IC50 | inhibition at 10 µM |
| --- | --- | --- | --- |
| CCCn1nc(CC)c2c(=O)c(O)c(-c3ccc(F)cc3F)[nH]c21 [Example 170, 6-(2,4-Difluorophenyl)-3-ethyl-5-hydroxy-1-propyl-1H-pyrazolo[3,4-b]pyridin-4(7H)-one] | 74.4% | > 150 nM |  |
| CCc1nn(CCN2CCN(CC)CC2)c2[nH]c(-c3c(F)cccc3F)c(O)c(=O)c12 [Example 172, 6-(2,6-Difluorophenyl)-3-ethyl-1-(2-(4-ethylpiperazin-1-yl)ethyl)-5-hydroxy-1H-pyrazolo[3,4-b]pyridin-4(7H)-one] | 80.9% | > 150 nM |  |
| CCc1nn(CCN2CCN(CC)CC2)c2[nH]c(-c3ccccc3Cl)c(O)c(=O)c12 [Example 173, 6-(2-Chlorophenyl)-3-ethyl-1-(2-(4-ethylpiperazin-1-yl)ethyl)-5-hydroxy-1H-pyrazolo[3,4-b]pyridin-4(7H)-one] | 76.1% | > 150 nM | 69.7% |
| CCc1nn(CCCN2CCOCC2)c2[nH]c(-c3cccc(C(F)(F)F)c3F)c(O)c(=O)c12 [Example 174, 3-Ethyl-6-(2-fluoro-3-(trifluoromethyl)phenyl)-5-hydroxy-1-(3-morpholinopropyl)-1H-pyrazolo[3,4-b]pyridin-4(7H)-one] | 85.6% | 100 to 150 nM |  |
| CCc1nn(CCCN2CCOCC2)c2[nH]c(-c3c(F)cccc3F)c(O)c(=O)c12 [Example 175, 6-(2,6-Difluorophenyl)-3-ethyl-5-hydroxy-1-(3-morpholinopropyl)-1H-pyrazolo[3,4-b]pyridin-4(7H)-one] | 84% | 100 to 150 nM | 81.3% |
| CCc1nn(CCCN2CCOCC2)c2[nH]c(-c3ccc(F)cc3F)c(O)c(=O)c12 [Example 176, 6-(2,4-Difluorophenyl)-3-ethyl-5-hydroxy-1-(3-morpholinopropyl)-1H-pyrazolo[3,4-b]pyridin-4(7H)-one] | 81.3% | > 150 nM |  |
| Cc1nn(CCN2CCNCC2)c2[nH]c(-c3ccccc3Cl)c(O)c(=O)c12 [Example 177, 6-(2-Chlorophenyl)-5-hydroxy-3-methyl-1-(2-(piperazin-1-yl)ethyl)-1H-pyrazolo[3,4-b]pyridin-4(7H)-one] | 68.6% | > 150 nM | 50.1% |
| Cc1nn(CCN2CCN(C)CC2)c2[nH]c(-c3cccc(C(F)(F)F)c3F)c(O)c(=O)c12 [Example 178, 6-(2-fluoro-3-(trifluoromethyl)phenyl)-5-hydroxy-3-methyl-1-(2-(4-methylpiperazin-1-yl)ethyl)-1H-pyrazolo[3,4-b]pyridin-4(7H)-one] | 89% | > 150 nM |  |
| CCc1nn(CCN2CCN(C)CC2)c2[nH]c(-c3cccc(C(F)(F)F)c3F)c(O)c(=O)c12 [Example 179, 3-Ethyl-6-(2-fluoro-3-(trifluoromethyl)phenyl)-5-hydroxy-1-(2-(4-methylpiperazin-1-yl)ethyl)-1H-pyrazolo[3,4-b]pyridin-4(7H)-one] | 92.3% | 100 to 150 nM |  |
| CCc1nn(CCC(C)C)c2[nH]c(-c3c(F)cccc3F)c(O)c(=O)c12 [Example 180, 6-(2,6-Difluorophenyl)-3-ethyl-5-hydroxy-1-isopentyl-1H-pyrazolo[3,4-b]pyridin-4(7H)-one] | 100% | < 50 nM | 100% |
| CCc1nn(CCC(C)C)c2[nH]c(-c3ccccc3Cl)c(O)c(=O)c12 [Example 181, 6-(2-Chlorophenyl)-3-ethyl-5-hydroxy-1-isopentyl-1H-pyrazolo[3,4-b]pyridin-4(7H)-one] | 100% | 50 to 100 nM | 100% |
| CCCn1nc(CO)c2c(=O)c(O)c(-c3c(F)cccc3F)[nH]c21 [Example 182, 6-(2,6-Difluorophenyl)-5-hydroxy-3-(hydroxymethyl)-1-propyl-1H-pyrazolo[3,4-b]pyridin-4(7H)-one] | 100% | 50 to 100 nM | 100% |
| O=c1c(O)c(-c2c(F)cccc2F)[nH]c2c1c(CO)nn2C1CC1 [Example 183, 1-Cyclopropyl-6-(2,6-difluorophenyl)-5-hydroxy-3-(hydroxymethyl)-1H-pyrazolo[3,4-b]pyridin-4(7H)-one] | 84.2% | 100 to 150 nM | 97.1% |
| CCc1nn(CCN2CCOC(C)(C)C2=O)c2[nH]c(-c3c(F)cccc3F)c(O)c(=O)c12 [Example 184, 4-(2-(6-(2,6-Difluorophenyl)-3-ethyl-5-hydroxy-4-oxo-4,7-dihydro-1H-pyrazolo[3,4-b]pyridin-1-yl)ethyl)-2,2-dimethylmorpholin-3-one] | 78.8% | > 150 nM | 81.6% |
| Cn1nc(C2CCN(S(C)(=O)=O)CC2)c2c(=O)c(O)c(-c3c(F)cccc3F)[nH]c21 [Example 185, 6-(2,6-Difluorophenyl)-5-hydroxy-1-methyl-3-(1-(methylsulfonyl)piperidin-4-yl)-1H-pyrazolo[3,4-b]pyridin-4(7H)-one] | 80.1% | 50 to 100 nM | 78.2% |
| CS(=O)(=O)N1CCC(c2nn(C3CC3)c3[nH]c(-c4c(F)cccc4F)c(O)c(=O)c23)CC1 [Example 186, 1-Cyclopropyl-6-(2,6-difluorophenyl)-5-hydroxy-3-(1-(methylsulfonyl)piperidin-4-yl)-1H-pyrazolo[3,4-b]pyridin-4(7H)-one] | 71.9% | > 150 nM | 81.2% |
| CCc1nn(C)c2[nH]c(-c3cnc(-c4ccc(F)cc4F)s3)c(O)c(=O)c12 [Example 187, 6-(2-(2,4-Difluorophenyl)thiazol-5-yl)-3-ethyl-5-hydroxy-1-methyl-1H-pyrazolo[3,4-b]pyridin-4(7H)-one] | 77% | 100 to 150 nM | 77.8% |
| Cn1nc(CO)c2c(=O)c(O)c(-c3c(F)cccc3F)[nH]c21 [Example 188, 6-(2,6-Difluorophenyl)-5-hydroxy-3-(hydroxymethyl)-1-methyl-1H-pyrazolo[3,4-b]pyridin-4(7H)-one] | 96.5% | 100 to 150 nM | 100% |
| Cn1nc(C2CCOCC2)c2c(=O)c(O)c(-c3c(F)cccc3F)[nH]c21 [Example 189, 6-(2,6-Difluorophenyl)-5-hydroxy-1-methyl-3-(tetrahydro-2H-pyran-4-yl)-1H-pyrazolo[3,4-b]pyridin-4(7H)-one] | 99.2% | < 50 nM | 98.6% |
| O=c1c(O)c(-c2c(F)cccc2F)[nH]c2c1c(C1CCOCC1)nn2C1CC1 [Example 190, 1-Cyclopropyl-6-(2,6-difluorophenyl)-5-hydroxy-3-(tetrahydro-2H-pyran-4-yl)-1H-pyrazolo[3,4-b]pyridin-4(7H)-one] | 93.1% | < 50 nM | 100% |
| Cn1nc(CN2CCOCC2)c2c(=O)c(O)c(-c3c(F)cccc3F)[nH]c21 [Example 191, 6-(2,6-difluorophenyl)-5-hydroxy-1-methyl-3-(morpholinomethyl)-1H-pyrazolo[3,4-b]pyridin-4(7H)-one] | 91.2% | 50 to 100 nM | 97.8% |
| CC(C)N1CCN(Cc2nn(C)c3[nH]c(-c4c(F)cccc4F)c(O)c(=O)c23)CC1 [Example 192, 6-(2,6-Difluorophenyl)-5-hydroxy-3-((4-isopropylpiperazin-1-yl)methyl)-1-methyl-1H-pyraazolo[3,4-b]pyridin-4(7H)-one] | 90.6% | 50 to 100 nM | 95.3% |
| Cn1nc(C2CCOCC2)c2c(=O)c(O)c(-c3ccccc3Cl)[nH]c21 [Example 193, 6-(2-Chlorophenyl)-5-hydroxy-1-methyl-3-(tetrahydro-2H-pyran-4-yl)-1H-pyrazolo[3,4-b]pyridin-4(7H)-one] | 84.7% | < 50 nM | 75.4% |
| Cn1nc(C2CCN(S(C)(=O)=O)CC2)c2c(=O)c(O)c(-c3ccccc3Cl)[nH]c21 [Example 194, 6-(2-chlorophenyl)-5-hydroxy-1-methyl-3-(1-(methylsulfonyl)piperidin-4-yl)-1H-pyrazolo[3,4-b]pyridin-4(7H)-one] | 98.3% | 50 to 100 nM | 96% |
| Cn1nc(CN2CC[C@H](F)C2)c2c(=O)c(O)c(-c3c(F)cccc3F)[nH]c21 [Example 195, (S)-6-(2,6-Difluorophenyl)-3-((3-fluoropyrrolidin-1-yl)methyl)-5-hydroxy-1-methyl-1H-pyrazolo[3,4-b]pyridin-4(7H)-one] | 97.7% | 100 to 150 nM | 100% |

— patent publication US20200247800A1, “SUBSTITUTED BICYCLIC HETEROCYCLIC COMPOUNDS AS NADPH OXIDASE INHIBITORS” (Glenmark Pharmaceuticals S.A., priority 2017, published 2020)
